Reference: publication PMC9452538, “The antimicrobial peptide LI14 combats multidrug-resistant bacterial infections” (Communications Biology, 2022)
Values after ≈ are worked out from the molar mass of the structure shown. Bridge positions count the residues as written; N and C are the ends. Ends that are not written are not given here. Peptide text beside a SMILES is read from it.

What was measured:
MRSA T144 [1] = assay: microbe, parasite or virus in culture; assay type: cell-based, Staphylococcus aureus; design: Antibacterial activity of LI14 derivates: unit not given here; conditions: MRSA T144; unit not given
Experimental: (§1) An antimicrobial activity study was conducted on all peptides against a panel of laboratory bacteria, including ATCC source and clinical isolates with resistance determinants. According to CLSI2021 guidelines, we tested the minimum inhibitory concentrations (MICs) of peptides using standard broth micro-dilutions. Briefly, bacteria grown to exponential phase were diluted in 1:1000 to MHB, subsequently, equivalent amounts of bacterial suspension (1.5 × 10^6 CFUs/mL) were mixed with different concentrations of peptides in a sterilized 96-well microtiter plate (Corning).

S. aureus ATCC 29213 = assay: microbe, parasite or virus in culture; assay type: cell-based, Staphylococcus aureus; design: Antibacterial activity of LI14 derivates: unit not given here; conditions: S. aureus 29213; unit not given
Experimental: as §1

E. coli ATCC 25922 = assay: microbe, parasite or virus in culture; assay type: cell-based, Escherichia coli; design: Antibacterial activity of LI14 derivates: unit not given here; conditions: E. coli 25922; unit not given
Experimental: as §1

[2] = test system: E. coli B2 (blaNDM-5 + mcr-1); assay: microbe, parasite or virus in culture; assay type: cell-based, Escherichia coli; design: Antibacterial activity of LI14 derivates: unit not given here; conditions: E. coli B2; unit not given
Experimental: as §1

MDR E. coli B2 = assay: Checkerboard assay with LI14; assay type: cell-based, Escherichia coli; conditions: for FIC index: antibiotic in combination with LI14, checkerboard 8 × 8, 18 h, ≤0.5 = synergy; for Potentiation: antibiotic potentiation in the presence of ¼ MIC of LI14; for MICa of antibiotic: in the absence of LI14; for MICb of antibiotic: in the presence of ¼ MIC of LI14
Experimental: (§2) Through checkerboard assay using two-fold serially diluted drugs (8 × 8 matrix), we evaluated the synergistic effects of LI14 with different mechanisms of antibiotics. The absorbance of cultures at 600 nm was determined by a Microplate reader after 18 h of incubation with (1.5 × 10^6 CFUs/mL) bacterial suspension. The FIC index (FICI) was calculated by performing two biological replicates for each combination. The formula is as follows: FIC index = FICIa + FICIb = MICab/MICa + MICba/Mb. An FIC index of ≤0.5 indicates synergy.
(§3) a/bMICs of antibiotics in the absence or presence of ¼ MIC of LI14.
(§4) cDegree of antibiotics potentiation in the presence of ¼ MIC of LI14.
(§5) –, none of potentiation activity.

[3] = test system: sensitive E. coli ATCC 25922; assay: Checkerboard assay with LI14; assay type: cell-based, Escherichia coli; conditions: for FIC index: antibiotic in combination with LI14, checkerboard; for MICa of antibiotic: in the absence of LI14; for MICb of antibiotic / Potentiation: in the presence of ¼ MIC of LI14
Experimental: as §2, §3, §4, §5

MRSA T144 [4] = assay: Checkerboard assay with LI14; assay type: cell-based, Staphylococcus aureus; conditions: for FIC index: antibiotic in combination with LI14, checkerboard; for MICa of antibiotic: in the absence of LI14; for MICb of antibiotic / Potentiation: in the presence of ¼ MIC of LI14
Experimental: as §2, §3, §4, §5

MRSA T144 [5] = assay type: cell-based, Staphylococcus aureus; conditions: T144
Experimental: MRSA T144 and E. coli B2 in the exponential growth phase were incubated with LI14 peptide supplemented with 10 mM Na^+, K^+, Mg^2+, 10% Dulbecco’s modified Eagle medium (DMEM), and 10% fetal bovine serum (FBS) for 16–18 h. The stability of LI14 was evaluated by the change of its antibacterial activity under different conditions.
LI14 were preincubated for 1 h at various temperatures (40–121 °C), pH (2–12), and proteases (pepsin, trypsin, and papain, final concentration 1 mg/mL). […] Following the incubation with the proteases, the leftover protease was precipitated with acetonitrile and removed by centrifugation at 3000 × g, followed by a MIC test.
Supplementary Table 4 Thermal, pH, salts and protease stability of AMPs against
MRSA T144 and E. coli B2 (MIC, μg/mL).
Treatment MRSA T144 E. coli B2

MRSA T144 [6] = assay: Neutropenic mouse thigh infection model; assay type: in vivo, CD-1 mice; conditions: AMP 20 mg/kg i.p., 48 h
Experimental: Female CD-1 mice (n = 6 biologically independent animals per group) were first given cyclophosphamide (two consecutive injections of 150 and 100 mg kg^−1 at 4 and 1 day before infection) to construct neutropenia models. The mice’s right thighs were then injected with 100 μL MRSA T144 or E. coli B2 suspensions (10^5 CFUs per mouse). Post-infection of 1 h, 100 μL LI14 peptide (10 or 20 mg/kg), ampicillin/rifampicin (20 mg/kg) or a combination of LI14 with ampicillin/ rifampicin (10 + 20 mg/kg) were given by intraperitoneal injection. All mice were euthanized 48 h after drug administration, and right thigh muscle tissue was removed aseptically, homogenized, serially diluted, and plated on MHA to qualify bacterial loads after overnight incubation at 37 °C.

Molecule	Antibacterial activity of LI14 derivates (MRSA T144 [1])	Antibacterial activity of LI14 derivates (S. aureus ATCC 29213)	Antibacterial activity of LI14 derivates (E. coli ATCC 25922)	Antibacterial activity of LI14 derivates [2]	also measured
LKKLCRILKKLARI-NH2 [LI14-A12]	16	8	2	4	–
C[C@H]1c2cccc(O)c2C(=O)C2=C(O)[C@]3(O)C(=O)C(C(N)=O)=C(O)[C@@H](N(C)C)[C@@H]3[C@@H](O)[C@@H]21 [Doxycycline]	–	–	–	–	FIC index (MDR E. coli B2): 0.25; Potentiation (MDR E. coli B2): 8 fold; MICa of antibiotic (MDR E. coli B2): 32 µg/mL; MICb of antibiotic (MDR E. coli B2): 4 µg/mL; FIC index [3]: 0.25; MICa of antibiotic [3]: 0.5 µg/mL; MICb of antibiotic [3]: 0.063 µg/mL; Potentiation [3]: 8 fold; FIC index (MRSA T144 [4]): 0.188; MICa of antibiotic (MRSA T144 [4]): 16 µg/mL; MICb of antibiotic (MRSA T144 [4]): 1 µg/mL; Potentiation (MRSA T144 [4]): 16 fold
LKKLCRILKKACRI-NH2 [LI14-A11, Ala substitute of LI14, position 11]	64	64	16	8	–
LKKLCRIAKKLCRI-NH2 [LI14-A8, Ala substitute of LI14, position 8]	64	128	16	8	–
LKKLCAILKKLCRI-NH2 [LI14-A6, Ala substitute of LI14, Arg at position 6]	> 128	> 128	128	32	–
CC[C@H](C)[C@H](NC(=O)[C@H](CCCNC(=N)N)NC(=O)[C@@H]1CSSC[C@H](NC(=O)[C@H](CC(C)C)NC(=O)[C@H](CCCCN)NC(=O)[C@H](CCCCN)NC(=O)[C@@H](N)CC(C)C)C(=O)N[C@@H](CCCNC(=N)N)C(=O)N[C@@H]([C@@H](C)CC)C(=O)N[C@@H](CC(C)C)C(=O)N[C@@H](CCCCN)C(=O)N[C@@H](CCCCN)C(=O)N[C@@H](CC(C)C)C(=O)N1)C(N)=O [LI14 (S-S)] (H-LKKLCRILKKLCRI-NH2; disulfide 5-12 (inferred))	4	4	8	4	MIC (MRSA T144 [5]): 4 µg/mL (≈ 2.32 µM)
LKKLCRILKKLCRA-NH2 [LI14-A14, Ala substitute of LI14, position 14]	32	16	16	4	–
LKKLCRILKKLCAI-NH2 [LI14-A13, Ala substitute of LI14, position 13]	16	16	8	4	–
CN[C@H](CC(C)C)C(=O)N[C@H]1C(=O)N[C@@H](CC(N)=O)C(=O)N[C@H]2C(=O)N[C@H]3C(=O)N[C@H](C(=O)N[C@H](C(=O)O)c4cc(O)cc(O)c4-c4cc3ccc4O)[C@H](O)c3ccc(c(Cl)c3)Oc3cc2cc(c3O[C@@H]2O[C@H](CO)[C@@H](O)[C@H](O)[C@H]2O[C@H]2C[C@](C)(N)[C@H](O)[C@H](C)O2)Oc2ccc(cc2Cl)[C@H]1O [Vancomycin]	–	–	–	–	FIC index (MDR E. coli B2): 0.078; Potentiation (MDR E. coli B2): 64 fold; MICa of antibiotic (MDR E. coli B2): 128 µg/mL; MICb of antibiotic (MDR E. coli B2): 2 µg/mL; FIC index [3]: 0.375; MICa of antibiotic [3]: 64 µg/mL; MICb of antibiotic [3]: 8 µg/mL; Potentiation [3]: 8 fold; FIC index (MRSA T144 [4]): 2.0; MICa of antibiotic (MRSA T144 [4]): 0.5 µg/mL; MICb of antibiotic (MRSA T144 [4]): 0.5 µg/mL
LKKACRILKKLCRI-NH2 [LI14-A4, Ala substitute of LI14, position 4]	64	64	16-32	8	–
LKKLARILKKLCRI-NH2 [LI14-A5]	16	16	4	4	–
LAKLCRILKKLCRI-NH2 [LI14-A2, Ala substitute of LI14, position 2]	16	8	8	4	–
LKKLCRALKKLCRI-NH2 [LI14-A7, Ala substitute of LI14, position 7]	64	64	32	16	–
AKKLCRILKKLCRI-NH2 [LI14-A1, Ala substitute of LI14, position 1]	64	16	16	4	–
LKALCRILKKLCRI-NH2 [LI14-A3, Ala substitute of LI14, position 3]	8	8-16	16	8	–
LKKLCRILKALCRI-NH2 [LI14-A10, Ala substitute of LI14, position 10]	16	16-32	16-32	8	–
CC1(C)S[C@@H]2[C@H](NC(=O)[C@H](N)c3ccccc3)C(=O)N2[C@H]1C(=O)O [Ampicillin]	–	–	–	–	FIC index (MDR E. coli B2): 2; MICa of antibiotic (MDR E. coli B2): > 128 µg/mL; MICb of antibiotic (MDR E. coli B2): > 128 µg/mL; FIC index (MRSA T144 [4]): 0.078; MICa of antibiotic (MRSA T144 [4]): 64 µg/mL; MICb of antibiotic (MRSA T144 [4]): 1 µg/mL; Potentiation (MRSA T144 [4]): 64 fold; Bacterial load in thigh (MRSA T144 [6]; animal 1): 7.62 Log10CFUs/thigh; Bacterial load in thigh (MRSA T144 [6]; animal 2): 7.65 Log10CFUs/thigh; Bacterial load in thigh (MRSA T144 [6]; animal 3): 8.00 Log10CFUs/thigh; Bacterial load in thigh (MRSA T144 [6]; animal 4): 8.03 Log10CFUs/thigh; Bacterial load in thigh (MRSA T144 [6]; animal 5): 7.34 Log10CFUs/thigh; Bacterial load in thigh (MRSA T144 [6]; animal 6): 7.15 Log10CFUs/thigh
LKKLCRILAKLCRI-NH2 [LI14-A9, Ala substitute of LI14, position 9]	16	16	8-16	4	–
